Values joined by “and” are separate entries in the source; they are usually repeats but may differ in a detail not shown here. Equal entries are not always repeated. No end group written: not given here. *: point of attachment. 5FAM = O=C1OC2(c3ccc(O)cc3Oc3cc(O)ccc32)c2ccc(C(=O)*)cc21; TQ2 = quencher; TQ3 = quencher
How the values were obtained:
[1] = test system: MMP14 in the HT1080 culture supernatants and the culture medium samples; assay: Digital detection of MMP14 active component in HT1080 culture supernatants, culture media and recovered liquids in wells; format: biochemical, Human; settings: for original concentration in the culture supernatant / amount of the extracellular vesicles in the fraction (0.7 mL): Example 59, qEV; for original concentration in the culture supernatant: recovered from 3 mL of the culture supernatant; for amount of the extracellular vesicles in the fraction (0.7 mL): 4 h
Description: In addition, for detection of MMP14 activity, 1 mM Custom #1 was diluted with the buffer (4) to prepare a MMP14 detection solution containing 5 μM Custom #1 and 2 μM Alexa Fluor 647.

[2] = test system: MMP in the MDA-MB-231-derived extracellular vesicles; assay: Evaluation of MMP activity of MDA-MB-231-derived extracellular vesicles with 96-well plate (SensoLyte 520 MMP Substrate Sampler Kit); format: biochemical, Human; settings: MP, EV 3.3 μg/mL
Description: 50 μL of the MMP detection solution was added to 50 μL of each of the samples, a reaction was performed at 30° C., and MMP activity was evaluated.
50 μL of each of the MMP detection solutions was added to 50 μL of each of the samples, a reaction was performed at 30° C., and MMP activity was evaluated.

[3] = Experiment condition (I): FBS, HT1080 culture Present, only centrifugation, Reaction 4 hr
[4] = Experiment condition (I): FBS, HT1080 culture Present, only centrifugation, Reaction 24 hr
[5] = Experiment condition (II): FBS, HT1080 culture Present, centrifugation + filtration, Reaction 4 hr
[6] = Experiment condition (II): FBS, HT1080 culture Present, centrifugation + filtration, Reaction 24 hr
[7] = Experiment condition (III): FBS culture medium, HT1080 culture Absent, Reaction 4 hr
[8] = Experiment condition (III): FBS culture medium, HT1080 culture Absent, Reaction 24 hr
[9] = Experiment condition (IV): Exo-FBS, HT1080 culture Present, only centrifugation, Reaction 4 hr
[10] = Experiment condition (IV): Exo-FBS, HT1080 culture Present, only centrifugation, Reaction 24 hr
[11] = Experiment condition (IX): MEM culture medium, HT1080 culture Absent, Reaction 4 hr
[12] = Experiment condition (IX): MEM culture medium, HT1080 culture Absent, Reaction 24 hr
[13] = Experiment condition (V): Exo-FBS, HT1080 culture Present, centrifugation + filtration, Reaction 4 hr
[14] = Experiment condition (V): Exo-FBS, HT1080 culture Present, centrifugation + filtration, Reaction 24 hr
[15] = Experiment condition (VI): Exo-FBS culture medium, HT1080 culture Absent, Reaction 4 hr
[16] = Experiment condition (VI): Exo-FBS culture medium, HT1080 culture Absent, Reaction 24 hr
[17] = Experiment condition (VII): MEM, HT1080 culture Present, only centrifugation, Reaction 4 hr
[18] = Experiment condition (VII): MEM, HT1080 culture Present, only centrifugation, Reaction 24 hr
[19] = Experiment condition (VIII): MEM, HT1080 culture Present, centrifugation + filtration, Reaction 4 hr
[20] = Experiment condition (VIII): MEM, HT1080 culture Present, centrifugation + filtration, Reaction 24 hr
[21] = HT1080 culture supernatant recovered with exoEasy, Exo-FBS, Reaction 4 hr
[22] = HT1080 culture supernatant recovered with exoEasy, Exo-FBS, Reaction 24 hr
[23] = HT1080 culture supernatant recovered with exoEasy, MEM, Reaction 4 hr
[24] = HT1080 culture supernatant recovered with exoEasy, MEM, Reaction 24 hr
[25] = qEV recovered liquid, Exo-FBS, Fraction # 8, 4 hours of reaction
[26] = qEV recovered liquid, Exo-FBS, Fraction # 9, 4 hours of reaction
[27] = qEV recovered liquid, Exo-FBS, Fraction # 10, 4 hours of reaction
[28] = qEV recovered liquid, Exo-FBS, Fraction # 11, 4 hours of reaction
[29] = qEV recovered liquid, Exo-FBS, Fraction # 12, 4 hours of reaction
[30] = qEV recovered liquid, Exo-FBS, Fraction # 13, 4 hours of reaction
[31] = qEV recovered liquid, Exo-FBS, Fraction # 14, 4 hours of reaction
[32] = qEV recovered liquid, Exo-FBS, Fraction # 15, 4 hours of reaction
[33] = qEV recovered liquid, MEM, Fraction # 7, 4 hours of reaction
[34] = qEV recovered liquid, MEM, Fraction # 8, 4 hours of reaction
[35] = qEV recovered liquid, MEM, Fraction # 9, 4 hours of reaction
[36] = qEV recovered liquid, MEM, Fraction # 10, 4 hours of reaction
[37] = qEV recovered liquid, MEM, Fraction # 11, 4 hours of reaction
[38] = qEV recovered liquid, MEM, Fraction # 12, 4 hours of reaction
[39] = qEV recovered liquid, MEM, Fraction # 13, 4 hours of reaction
[40] = qEV recovered liquid, MEM, Fraction # 14, 4 hours of reaction

## [5-FAM]GRIGFLRTAK(TQ2)[OH] (5FAM-GRIGFLRTAK(TQ2)-OH) [Custom #1]
[1]; Exo-FBS
  original concentration in the culture supernatant: 9.3259e+09 mL⁻¹
[1]; Fraction #7 of the MEM
  amount of the extracellular vesicles in the fraction (0.7 mL): 1.114×10^10
[1]; Fraction #8 of the Exo-FBS
  amount of the extracellular vesicles in the fraction (0.7 mL): 0.8283×10^10
[1]; Fraction #8 of the MEM
  amount of the extracellular vesicles in the fraction (0.7 mL): 0.5245×10^10
[1]; Fraction #9 of the Exo-FBS
  amount of the extracellular vesicles in the fraction (0.7 mL): 1.969×10^10
[1]; MEM
  original concentration in the culture supernatant: 5.4612e+09 mL⁻¹
[1]; [3]
  Expected value λ: 0.9029
  Number of positives: 16,696
  Positive ratio: 0.5946
[1]; [4]
  Expected value λ: 0.9382
  Number of positives: 17,091
  Positive ratio: 0.6087
[1]; [5]
  Expected value λ: 0.7605
  Number of positives: 14,954
  Positive ratio: 0.5325
[1]; [6]
  Expected value λ: 0.7723 and 0.7722
  Number of positives: 15,051
  Positive ratio: 0.538
[1]; [7]
  Expected value λ: 0.6588
  Number of positives: 13,549
  Positive ratio: 0.4825
[1]; [8]
  Expected value λ: 0.686
  Number of positives: 13,900
  Positive ratio: 0.4964
[1]; [9]
  Expected value λ: 0.5033
  Number of positives: 11,105
  Positive ratio: 0.3955
[1]; [10]
  Expected value λ: 0.4954
  Number of positives: 10,939
  Positive ratio: 0.3906
[1]; [11]
  Expected value λ: 0.00011
  Number of positives: 3
  Positive ratio: 0.00011
[1]; [12]
  Expected value λ: 0.00014
  Number of positives: 4
  Positive ratio: 0.00014
[1]; [13]
  Expected value λ: 0.5687
  Number of positives: 12,180
  Positive ratio: 0.4338
[1]; [14]
  Expected value λ: 0.5771
  Number of positives: 12,313
  Positive ratio: 0.4385
[1]; [15]
  Expected value λ: 0.6217
  Number of positives: 12,998
  Positive ratio: 0.4629
[1]; [16]
  Expected value λ: 0.6019
  Number of positives: 12,698
  Positive ratio: 0.4522
[1]; [17]
  Expected value λ: 0.00335
  Number of positives: 94
  Positive ratio: 0.00335
[1]; [18]
  Expected value λ: 0.01005
  Number of positives: 280
  Positive ratio: 0.01005
[1]; [19]
  Expected value λ: 0.00514
  Number of positives: 144
  Positive ratio: 0.00513
[1]; [20]
  Expected value λ: 0.01107
  Number of positives: 309
  Positive ratio: 0.01107
[1]; [21]
  Expected value λ: 0.3476
  Number of positives: 8,245
  Positive ratio: 0.2936
[1]; [22]
  Expected value λ: 0.5132
  Number of positives: 11,272
  Positive ratio: 0.4014
[1]; [23]
  Expected value λ: 0.00471
  Number of positives: 132
  Positive ratio: 0.0047
[1]; [24]
  Expected value λ: 0.01107
  Number of positives: 308
  Positive ratio: 0.01101
[1]; [25]
  Expected value λ: 0.2958
  Number of positives: 7,164
  Positive ratio: 0.2561
[1]; [26]
  Expected value λ: 0.7034
  Number of positives: 14,130
  Positive ratio: 0.5051
[1]; [27]
  Expected value λ: 1.421
  Number of positives: 21,264
  Positive ratio: 0.7586
[1]; [28]
  Expected value λ: 1.453
  Number of positives: 21,512
  Positive ratio: 0.7661
[1]; [29]
  Expected value λ: 1.465
  Number of positives: 21,591
  Positive ratio: 0.7689
[1]; [30]
  Expected value λ: 1.3102
  Number of positives: 20,505
  Positive ratio: 0.7302
[1]; [31]
  Expected value λ: 1.962
  Number of positives: 24,077
  Positive ratio: 0.8594
[1]; [32]
  Expected value λ: 3.133
  Number of positives: 26,856
  Positive ratio: 0.9564
[1]; [33]
  Expected value λ: 0.3978
  Number of positives: 9,216
  Positive ratio: 0.3282
[1]; [34]
  Expected value λ: 0.1873
  Number of positives: 4,791
  Positive ratio: 0.1708
[1]; [35]
  Expected value λ: 0.1593
  Number of positives: 4,129
  Positive ratio: 0.1472
[1]; [36]
  Expected value λ: 0.0176
  Number of positives: 490
  Positive ratio: 0.01745
[1]; [37]
  Expected value λ: 0.01104
  Number of positives: 308
  Positive ratio: 0.01098
[1]; [38]
  Expected value λ: 0.01161
  Number of positives: 324
  Positive ratio: 0.01154
[1]; [39]
  Expected value λ: 0.02444
  Number of positives: 678
  Positive ratio: 0.02415
[1]; [40]
  Expected value λ: 0.00075
  Number of positives: 21
  Positive ratio: 0.00075

## TAMRA-GGPLGLAGGK(TQ3) ({TAMRA}-GGPLGLAGGK(TQ3)) [Custom #2T]
[2]; 1.25 μM Custom #2T with 1.25 μM SB2
  Fluorescence change after 2 hours of reaction at 30° C.: 1,319 ΔRFU
[2]; 1.25 μM Custom #2T with 1.25 μM SB6
  Fluorescence change after 2 hours of reaction at 30° C.: 1,527 ΔRFU
[2]; 1.25 μM Custom #2T with 1.25 μM SB7
  Fluorescence change after 2 hours of reaction at 30° C.: 626 ΔRFU
[2]; 1.25 μM Custom #2T with 1.25 μM SB9
  Fluorescence change after 2 hours of reaction at 30° C.: 469 ΔRFU
[2]; 1.25 μM Custom #2T with 1.25 μM SB10
  Fluorescence change after 2 hours of reaction at 30° C.: 1,030 ΔRFU
[2]; 5 μM Custom #2T with 5 μM SB2
  Fluorescence change after 2 hours of reaction at 30° C.: 710 ΔRFU
[2]; 5 μM Custom #2T with 5 μM SB6
  Fluorescence change after 2 hours of reaction at 30° C.: 1,161 ΔRFU
[2]; 5 μM Custom #2T with 5 μM SB7
  Fluorescence change after 2 hours of reaction at 30° C.: 288 ΔRFU
[2]; 5 μM Custom #2T with 5 μM SB9
  Fluorescence change after 2 hours of reaction at 30° C.: 153 ΔRFU
[2]; 5 μM Custom #2T with 5 μM SB10
  Fluorescence change after 2 hours of reaction at 30° C.: 592 ΔRFU

Reference: patent US20250290928A1, “METHOD, KIT AND DEVICE FOR DETECTING EXTRACELLULAR VESICLES” (priority 2022, published 2025)
